# Test results taken from US5854204A, “Aβ peptides that modulate β-amyloid aggregation” (priority 1996, dated 1998).
# Numbered stars: 1 amine (or outer) side, 2 acyl side, 3 side chain; on linkers, the order of the positions; unused ones are H or OH. Square brackets hold non-standard residues; d marks the D form. Peptide text beside a SMILES is read from it. * marks the point of attachment. Cholyl = C[C@H](CCC(=O)*)[C@H]1CC[C@H]2[C@@H]3[C@H](O)C[C@@H]4C[C@H](O)CC[C@]4(C)[C@H]3C[C@H](O)[C@]12C; X2 = O=C(C1(O)C[C@H](O)[C@@H](N[*:1])[C@H]([C@H](O)[C@H](O)CO)O1)[*:2]; βAla = NCCC(=O)O
# Experiments:
# [1] = molecular target: T1, Aβ1-40 (Homo sapiens, UniProt P05067); test: biochemical; details: read-out: % Inucl'n (percent reduction in maximum turbidity)
# T1 sequence (P05067 672-711): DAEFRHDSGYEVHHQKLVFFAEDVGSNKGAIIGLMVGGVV
# Excerpt: (§1) The nucleation assay is employed to determine the ability of test compounds to alter (e.g. inhibit) the early events in formation of β-AP fibers from monomeric β-AP. […] The time delay before polymerization of β-AP monomer can be quantified as well as the extent of formation of insoluble fiber by light scattering (turbidity). Polymerization reaches equilibrium when the maximum turbidity reaches a plateau. […] The threshold of sensitivity for the measurement of turbidity is in the range of 15-20 μM β-AP. […] This assay can be performed using stirring or shaking to accelerate polymerization, thereby increasing the speed of the assay. Moreover the assay can be adapted to a 96-well plate format to screen multiple compounds.
# (§2) HFIP-solubilized peptide is sonicated in a waterbath sonicator for 5 min at highest setting, then evaporated to dryness under a stream of argon. […] Test compounds are dissolved in DMSO at a 100× concentration. […] Ten microliters of the mixture is then added to the bottom of a well of a Corning Costar ultra low binding 96-well plate (Corning Costar, Cambridge Mass.; cat. No. 2500). […] The plate is then returned to the shaker and shaken continuously for 5 hours. Turbidity readings are taken at 15 minute intervals.
# (§3) Accordingly a fold increase in lag time of 1.0 indicates no change in lag time, whereas numbers >1.0 indicate an increase in lag time. The "% inhibition of plateau", which is a measure of the ability of the compound to decrease the total amount of aggregation, refers to the reduction of the final turbidity in the presence of the test compound expressed as a percent of the control without the test compound.
# [2] = molecular target: T1, Aβ1-40
# Excerpt: as §1, §2, §3
# [3] = molecular target: T1, Aβ1-40; test: Seeded extension assay (thioflavin T fluorescence); assay type: biochemical; design: Natural β-AP (β-AP1-40) was obtained commercially from Bachem (Torrance, Calif.); purchased Bachem (Torrance, Calif.); details: Table V; 25 mole % inhibitor
# Experimental: The seeded extension assay can be employed to measure the rate of Aβ fiber formed in a solution of Aβ monomer following addition of polymeric Aβ fiber "seed". The ability of test compounds to prevent further deposition of monomeric Aβ to previously deposited amyloid is determined using a direct indicator of β-sheet formation using fluorescence. In contrast with the nucleation assay, the addition of seed provides immediate nucleation and continued growth of preformed fibrils without the need for continuous mixing, and thus results in the absence of a lag time before polymerization starts. Since this assay uses static polymerization conditions, the activity of positive compounds in the nucleation assay can be confirmed in this second assay under different conditions and with an additional probe of amyloid structure.
# Samples of the solution are then diluted in thioflavin T (Th-T). The polymer-specific association of Th-T with Aβ produces a fluorescent complex that allows the measurement of the extent of fibril formation (Levine, H. (1993) Protein Science 2:404-410). In particular, association of Th-T with aggregated β-AP, but not monomeric or loosely associated β-AP, gives rise to a new excitation (ex) maximum at 450 nm and an enhanced emission (em) at 482 nm, compared to the 385 nm (ex) and 445 nm (em) for the free dye. Small aliquots of the polymerization mixture contain sufficient fibril to be mixed with Th-T to allow the monitoring of the reaction mixture by repeated sampling. A linear growth curve is observed in the presence of excess monomer. The formation of thioflavin T responsive β-sheet fibrils parallels the increase in turbidity observed using the nucleation assay.
# To prepare the stock seed, 1 ml of the Aβ monomer preparation, is incubated for approximately 8 days at 37° C. and sheared sequentially through an 18, 23, 26 and 30 gauge needle 25, 25, 50, and 100 times respectively. 2 μl samples of the sheared material is taken for fluorescence measurements after every 50 passes through the 30 gauge needle until the fluorescence units (FU) plateau (approx. 100-150×). Test compounds are prepared by dissolving an appropriate amount of test compound in 1× PBS to a final concentration of 1 mM (10× stock). If insoluble, the compound is dissolved in 1/10 volume of DMSO and diluted in 1× PBS to 1 mM. A further 1/10 dilution is also prepared to test each candidate at both 100 μM and 10 μM.
# To perform the seeded extension assay, each sample is set up with 50 μl of 200 μM monomer, 125 FU sheared seed (a variable quantity dependent on the batch of seed, routinely 3-6 μl) and 10 μl of 10× modulator solution. The sample volume is then adjusted to a final volume of 100 μl with 1× PBS. Two concentrations of each modulator typically are tested: 100 μM and 10 μM, equivalent to a 1:1 and a 1:10 molar ratio of monomer to modulator. The controls include an unseeded reaction to confirm that the fresh monomer contains no seed, and a seeded reaction in the absence of any modulators, as a reference to compare against candidate modulators. The assay is incubated at 37° C. for 6 h, taking 2 μl samples hourly for fluorescence measurements. To measure fluorescence, a 2 μl sample of Aβ is added to 400 μl of Thioflavin-T solution (50 mM Potassium Phosphate […] pH 7.5). The samples are vortexed and the fluorescence is read in a 0.5 ml micro quartz cuvette at EX 450 nm and EM 482 nm (Hitachi 4500 Fluorimeter).
# The modulators were evaluated in the nucleation and seeded extension assays described in Example 6 and the results are summarized below in Table V. The change in lag time (ΔLag) is presented as the ratio of the lag time observed in the presence of the test compound to the lag time of the control. […] Inhibition (% Inucl'n) is listed as the percent reduction in the maximum observed turbidity in the control at the end of the assay time period. […]
# 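Throughout, for % Inhibition of Plateau: Aβ nucleation assay tracking fiber polymerization from monomer by turbidity (light scattering), shaken continuously in 96-well plates, read every 15 min over 5 h, compared with compound-free control.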
SMILES,inhibition at 33 % [1] [%],% Inhibition of Plateau [2],inhibition at 100 % [1] [%],% Iext'n (percent reduction of thioflavin-T fluorescence) [3] [%]
CC(C)C[C@H](NC(=O)[C@H](CCCCN)NC(=O)[C@H](CCC(N)=O)NC(=O)[C@H](Cc1c[nH]cn1)NC(=O)CC[C@@H](C)[C@H]1CC[C@H]2[C@@H]3[C@H](O)C[C@@H]4C[C@H](O)CC[C@]4(C)[C@H]3C[C@H](O)[C@]12C)C(=O)N[C@H](C(=O)N[C@@H](Cc1ccccc1)C(=O)N[C@@H](Cc1ccccc1)C(=O)O)C(C)C [PPI-348] (Cholyl-HQKLVFF-OH),70,49%,–,–
"CC(C)C[C@H](NC(=O)[C@H](CCCCN)NC(=O)[C@H](CCC(N)=O)NC(=O)CC[C@@H](C)[C@H]1CC[C@H]2[C@@H]3[C@H](O)C[C@@H]4C[C@H](O)CC[C@]4(C)[C@H]3C[C@H](O)[C@]12C)C(=O)N[C@H](C(=O)N[C@@H](Cc1ccccc1)C(=O)N[C@@H](Cc1ccccc1)C(=O)O)C(C)C [PPI-349, cholyl-Aβ15-20]",–,–,100,56
"CC(C)C[C@H](NC(=O)[C@H](CCCCN)NC(=O)CC[C@@H](C)[C@H]1CC[C@H]2[C@@H]3[C@H](O)C[C@@H]4C[C@H](O)CC[C@]4(C)[C@H]3C[C@H](O)[C@]12C)C(=O)N[C@H](C(=O)N[C@@H](Cc1ccccc1)C(=O)N[C@@H](Cc1ccccc1)C(=O)O)C(C)C [PPI-350, cholyl-Aβ16-20]",–,–,–,11
CC(C)C[C@H](NC(=O)[C@H](CCCCN)NC(=O)CC[C@@H](C)[C@H]1CC[C@H]2[C@@H]3[C@H](O)C[C@@H]4C[C@H](O)CC[C@]4(C)[C@H]3C[C@H](O)[C@]12C)C(=O)N[C@H](C(=O)N[C@@H](Cc1ccccc1)C(=O)N[C@@H](Cc1ccccc1)C(=O)O)[C@@H](C)O [PPI-369] (Cholyl-KLTFF-OH),–,~ 0%,–,44
"CC(C)C[C@H](NC(=O)[C@H](CCCCN)NC(=O)CC[C@@H](C)[C@H]1CC[C@H]2[C@@H]3[C@H](O)C[C@@H]4C[C@H](O)CC[C@]4(C)[C@H]3C[C@H](O)[C@]12C)C(=O)N[C@H](C(=O)N[C@@H](C)C(=O)N[C@@H](Cc1ccccc1)C(=O)O)C(C)C [PPI-370, cholyl-Aβ16-20 Phe19- >Ala] (Cholyl-KLVAF-OH)",–,73%,–,31
CC(C)C[C@H](NC(=O)[C@H](CCCCN)NC(=O)CC[C@@H](C)[C@H]1CC[C@H]2[C@@H]3[C@H](O)C[C@@H]4C[C@H](O)CC[C@]4(C)[C@H]3C[C@H](O)[C@]12C)C(=O)N[C@H](C(=O)N[C@@H](Cc1ccccc1)C(=O)N[C@@H](Cc1ccccc1)C(=O)NCCC(=O)O)C(C)C [PPI-371] (Cholyl-KLVFF[βAla]-OH),–,–,76,80
CC(C)C[C@H](NC(=O)[C@@H](NC(=O)[C@H](Cc1ccccc1)NC(=O)[C@H](CCCCN)NC(=O)[C@H](Cc1ccccc1)NC(=O)CC[C@@H](C)[C@H]1CC[C@H]2[C@@H]3[C@H](O)C[C@@H]4C[C@H](O)CC[C@]4(C)[C@H]3C[C@H](O)[C@]12C)C(C)C)C(=O)O [PPI-372] (Cholyl-FKFVL-OH),–,–,45,37
CC(=O)N[C@H]1[C@H]([C@H](O)[C@H](O)CO)OC(O)(C(=O)N[C@@H](CCCCN)C(=O)N[C@@H](CC(C)C)C(=O)N[C@H](C(=O)N[C@@H](Cc2ccccc2)C(=O)N[C@@H](Cc2ccccc2)C(=O)O)C(C)C)C[C@@H]1O (stereo partly shown) [PPI-373] (Ac-[X2]KLVFF-OH),–,–,16,8
"CC(C)C[C@H](NC(=O)[C@H](CCCCN)NC(=O)CCCC[C@@H]1SC[C@@H]2NC(=N)N[C@@H]21)C(=O)N[C@H](C(=O)N[C@@H](Cc1ccccc1)C(=O)N[C@@H](Cc1ccccc1)C(=O)O)C(C)C [PPI-374, iminobiotinyl-Aβ16-20]",–,86%,–,0
CC(C)[C@H](NC(=O)[C@@H](NC(=O)[C@H](CCCCN)NC(=O)CC[C@@H](C)[C@H]1CC[C@H]2[C@@H]3[C@H](O)C[C@@H]4C[C@H](O)CC[C@]4(C)[C@H]3C[C@H](O)[C@]12C)[C@@H](C)O)C(=O)N[C@@H](Cc1ccccc1)C(=O)N[C@@H](Cc1ccccc1)C(=O)O [PPI-375] (Cholyl-KTVFF-OH),–,–,18,21
CC(C)C[C@H](NC(=O)CC[C@@H](C)[C@H]1CC[C@H]2[C@@H]3[C@H](O)C[C@@H]4C[C@H](O)CC[C@]4(C)[C@H]3C[C@H](O)[C@]12C)C(=O)N[C@H](C(=O)N[C@@H](Cc1ccccc1)C(=O)N[C@@H](Cc1ccccc1)C(=O)N[C@@H](C)C(=O)N[C@@H](CCC(=O)O)C(=O)O)C(C)C [PPI-379] (Cholyl-LVFFAE-OH),–,–,55,16
CC(C)C[C@H](NC(=O)CC[C@@H](C)[C@H]1CC[C@H]2[C@@H]3[C@H](O)C[C@@H]4C[C@H](O)CC[C@]4(C)[C@H]3C[C@H](O)[C@]12C)C(=O)N[C@H](C(=O)N[C@@H](Cc1ccccc1)C(=O)N[C@@H](Cc1ccccc1)C(=O)O)C(C)C [PPI-380],72,–,–,51
CC(C)C[C@H](NC(=O)CC[C@@H](C)[C@H]1CC[C@H]2[C@@H]3[C@H](O)C[C@@H]4C[C@H](O)CC[C@]4(C)[C@H]3C[C@H](O)[C@]12C)C(=O)N[C@H](C(=O)N[C@@H](Cc1ccccc1)C(=O)N[C@@H](Cc1ccccc1)C(=O)N[C@H](C)C(=O)O)C(C)C [PPI-381],–,–,56,11
CC(C)C[C@H](NC(=O)CC[C@@H](C)[C@H]1CC[C@H]2[C@@H]3[C@H](O)C[C@@H]4C[C@H](O)CC[C@]4(C)[C@H]3C[C@H](O)[C@]12C)C(=O)N[C@H](C(=O)N[C@@H](Cc1ccccc1)C(=O)N[C@@H](Cc1ccccc1)C(=O)N[C@@H](C)C(N)=O)C(C)C [PPI-382],–,–,-200,91
CC(C)[C@H](NC(=O)[C@H](C)NC(=O)CC[C@@H](C)[C@H]1CC[C@H]2[C@@H]3[C@H](O)C[C@@H]4C[C@H](O)CC[C@]4(C)[C@H]3C[C@H](O)[C@]12C)C(=O)N[C@@H](Cc1ccccc1)C(=O)N[C@@H](Cc1ccccc1)C(=O)N[C@@H](C)C(=O)O [PPI-388] (Cholyl-AVFFA-OH),–,–,68,44
CC(C)C[C@H](NC(=O)CC[C@@H](C)[C@H]1CC[C@H]2[C@@H]3[C@H](O)C[C@@H]4C[C@H](O)CC[C@]4(C)[C@H]3C[C@H](O)[C@]12C)C(=O)N[C@@H](C)C(=O)N[C@@H](Cc1ccccc1)C(=O)N[C@@H](Cc1ccccc1)C(=O)N[C@@H](C)C(=O)O [PPI-389] (Cholyl-LAFFA-OH),–,–,47,66
CC(C)C[C@H](NC(=O)CC[C@@H](C)[C@H]1CC[C@H]2[C@@H]3[C@H](O)C[C@@H]4C[C@H](O)CC[C@]4(C)[C@H]3C[C@H](O)[C@]12C)C(=O)N[C@H](C(=O)N[C@@H](C)C(=O)N[C@@H](Cc1ccccc1)C(=O)N[C@@H](C)C(=O)O)C(C)C [PPI-390] (Cholyl-LVAFA-OH),–,–,25,0
COC(=O)[C@H](C)NC(=O)[C@H](Cc1ccccc1)NC(=O)[C@H](Cc1ccccc1)NC(=O)[C@@H](NC(=O)[C@H](CC(C)C)NC(=O)CC[C@@H](C)[C@H]1CC[C@H]2[C@@H]3[C@H](O)C[C@@H]4C[C@H](O)CC[C@]4(C)[C@H]3C[C@H](O)[C@]12C)C(C)C [PPI-401],–,–,–,0
